Data set [1] can be described thus: Thermal analysis: differential scanning calorimetry, endotherm. Format: physicochemical. The conditions noted are these: DSC; for endotherm compared with the unground bulk powder (in words): before and after the grinding treatment; for Endotherm: temperature rise 5° C./min. How it is done: The finely ground powder of MX-68 sustaining the crystallinity according to the present invention means a finely ground powder of MX-68 which has, both before and after the grinding treatment, parts showing polarization when observed under a polarization microscope, and has an endotherm of from 25 to 50 mJ/mg, preferably from […] at an endothermic peak appearing, for example, at 185 to 195° C. in the differential scanning calorimetry as will be described Example 2.
A crystalline bulk powder of MX-68 obtained by the method described in Japanese Laid-Open Patent Publication No. 6-239863(A)) (manufactured by Chugai Pharmaceutical Co., Ltd.) and the finely ground powders of MX-68 obtained by the grinding methods described in Example 1 were thermally analyzed to thereby determine the differential scanning calories (DSC, temperature rise: 5° C./min). Then the endotherm (caused by the endothermic reaction occurring in association with the conversion of crystalline particles in the crystalline bulk powder into the amorphous state) was calculated.
For orientation: DSC measures the heat that a sample takes up or gives off during a temperature scan.

The nature of data set [2]: Storage stability (60° C., 2 weeks). The data set is classed as physicochemical. The conditions noted are these: for storage stability after the grinding treatment (in words): 60° C.; for Residual ratio: storage 60° C. Here is the method: A comparison was made on the storage stability (60° C., 2 weeks) of the crystalline bulk powder of MX-68 obtained by the method described in Japanese Laid-Open Patent Publication No. 6-239863(A)) (manufactured by Chugai Pharmaceutical Co., Ltd.), the mortar-ground bulk powder and the centrifugal-ground bulk powder obtained in Example 1.

A short description of data set [3]: Average particle diameter by dry particle size distribution measurement (AEROSIZER mach 2). As to conditions: dry particle size distribution measurement after grinding. The data set is classed as physicochemical. An excerpt: The average particle diameter of the finely ground powder of MX-68 in the present invention can be measured by using, for example, a dry particle size distribution measurement apparatus (AEROSIZER mach 2, manufactured by AMHERST PROCESS INSTRUMENTS, INC) as will be described in Example 1 hereinafter. The finely ground powder of MX-68 according to the present invention has an average particle diameter of from 5 to 25 μm. When the average particle diameter is less than 5 μm, the finely ground powder is liable to be charged with static electricity and thus there arises a high possibility of dusting and adhesion. When the average particle diameter exceeds 25 μm, on the other hand, it is feared that the solubility and/or content uniformity of MX-68 are adversely affected. It is preferable that the average particle diameter ranges from 8 to 15 μm, still preferably from 9 to 11 μm.
A crystalline bulk powder of MX-68 obtained by the method described in Japanese Laid-Open Patent Publication No. 6-239863(A)) (manufactured by Chugai Pharmaceutical Co., Ltd.) was manually ground in an agate mortar. Separately, the same bulk powder was ground with a centrifugal grinder (ZM-1, manufactured by Nippon Seiki Seisakusho) by using a screen (pore size: 0.2 mm) at 20,000 rpm. Separately, the same bulk powder was ground with a micro-labo jet mill (A-O Jet Mill, manufactured by Seishin Kigyo). The particle diameter of each finely ground powder of MX-68 thus obtained was measured by using a dry particle size distribution measurement apparatus (AEROSIZER mach 2, manufactured by AMHERST PROCESS INSTRUMENTS, INC) and the average particle diameter was determined. As a result, the average particle diameter could be controlled to 9 to 11 μm by each grinding method (Table 1).

A short description of data set [4]: Dissolution test, method 2 (paddle method), Japanese Pharmacopoeia. As to conditions: compared with the amorphous bulk powder. The data set is classed as physicochemical. An excerpt:
Tablets of the following formula were produced by using the crystalline bulk powder of MX-68 obtained by the method described in Japanese Laid-Open Patent Publication No. 6-239863(A)) (manufactured by Chugai Pharmaceutical Co., Ltd.), an amorphous bulk powder and the centrifugal.-ground bulk powder obtained in Example 1. More particularly, MX-68, lactose, crystalline cellulose and croscarmellose sodium were dry-mixed. After adding water, the mixture was kneaded and granulated. Then the granulated matter was dried at 50° C., mixed with magnesium stearate, and press molded to give tablets of 6 mm in diameter. In accordance with the method 2 (paddle method) of the dissolution test as specified in Japanese Pharmacopoeia, these tablets were subjected to the dissolution test using 500 ml of JP official solution 1 at 37° C.

Data set [5] is described as follows: Pharmacokinetics after oral administration to dogs, MX-68 concentration in the blood. Format: in vivo. The conditions noted are these: 1 mg/kg.

`Nc1nc(N)c2nc(CN3CCSc4cc(C(=O)N[C@@H](CCCC(=O)O)C(=O)O)ccc43)cnc2n1` [Centrifugal-ground bulk powder, N-(1-((2,4-diamino-6-pteridinyl)methyl)-3,4-dihydro-2H-1,4-benzothiazine-7-carbonyl)L-α-aminoadipic acid]: in data set [1], the “endotherm compared with the unground bulk powder (in words)” value was “no change in the endotherm” and the Endotherm turned out to be 32.8 mJ/mg. Besides, in data set [2], the “storage stability after the grinding treatment (in words)” value is recorded as “sustained stability comparable to the unground bulk powder” and the Residual ratio stood at 96.3%. This molecule also displayed an Average particle diameter in data set [3] of 11.4 μm.
As for `Nc1nc(N)c2nc(CN3CCSc4cc(C(=O)N[C@@H](CCCC(=O)O)C(=O)O)ccc43)cnc2n1` [Jet mill-ground bulk powder, N-(1-((2,4-diamino-6-pteridinyl)methyl)-3,4-dihydro-2H-1,4-benzothiazine-7-carbonyl)L-α-aminoadipic acid], in data set [1], the “endotherm compared with the unground bulk powder (in words)” value was “no change in the endotherm” and the Endotherm worked out at 33.2 mJ/mg. Also, the Average particle diameter in data set [3] was determined as 10.7 μm.
Consider `Nc1nc(N)c2nc(CN3CCSc4cc(C(=O)N[C@@H](CCCC(=O)O)C(=O)O)ccc43)cnc2n1` [Mortar-ground bulk powder], for which, in data set [1], the “endotherm compared with the unground bulk powder (in words)” value is listed as “a decrease in the endotherm” and the Endotherm is listed as 22.3 mJ/mg. In data set [2], the “storage stability after the grinding treatment (in words)” value is listed as “a decrease in stability”. Moreover, in data set [2] (listed as Motor-ground bulk powder), the Residual ratio stood at 90.9%. The Average particle diameter in data set [3] came out at 9.3 μm.
In data set [1], `Nc1nc(N)c2nc(CN3CCSc4cc(C(=O)N[C@@H](CCCC(=O)O)C(=O)O)ccc43)cnc2n1` [Unground bulk powder] came in with an Endotherm of 33.5 mJ/mg. Besides, in data set [2], the Residual ratio was determined as 95.3%. Further, the “solution speed (in words)” value in data set [4] is “lower solution speed”. The “bioavailability (in words)” value in data set [5] (compared with the amorphous bulk powder) is “lower bioavailability”.
On to `Nc1nc(N)c2nc(CN3CCSc4cc(C(=O)N[C@@H](CCCC(=O)O)C(=O)O)ccc43)cnc2n1` [amorphous bulk MX-68 powder, N-(1-((2,4-diamino-6-pteridinyl)methyl)-3,4-dihydro-2H-1,4-benzothiazine-7-carbonyl)L-α-aminoadipic acid], for which the “absorbability (in words)” value in data set [5] (compared with the unground bulk powder) is on record as “higher absorbability”.

Values taken from US6383520B1, “Fine powder of L-α-aminoadipic acid derivative, oral solid preparations containing the same, and method for treatment of bulk powders” (Chugai Seiyaku Kabushiki Kaisha, priority 1998, dated 2002).
